Earlier results, collected in patent US20030216871A1, “Calculating a characteristic property of a molecule by correlation analysis” (priority 2001, published 2003).

Tests used:
[1] = test system: human tumor cells in culture; settings: C is average IC50 from assays, values from S. P. Gupta, Chem. Review 94, 1519 (1994); cited from earlier work
[2] = experimental logP used as measured property in R matrix; cited from earlier work
[3] = organic amines, 25C, I = 0; cited from earlier work

Row | Structure (SMILES) | Experimenter value of Active Concentration (log1/C) Against Human Tumor [1] | logP [2] | pK exper [3]
1 | CO[C@@]12[C@H](COC(N)=O)C3=C(C(=O)C(C)=C(N)C3=O)N1C[C@@H]1N[C@@H]12 [Compound 1] | 7.7 |  | 
2 | C#CCNC1=C(C)C(=O)C2=C(C1=O)C(COC(N)=O)C1(OC)C3NC3CN21 (stereo not drawn) [Compound 3] | 8.46 | 0.24 | 
3 | CO[C@@]12[C@H](COC(N)=O)C3=C(C(=O)C(C)=C(NCCc4ccccn4)C3=O)N1C[C@@H]1N[C@@H]12 [Compound 6] | 7.38 | 1.23 | 
4 | COC12C(COC(N)=O)C3=C(C(=O)C(C)=C(Nc4ccccc4)C3=O)N1CC1NC12 (stereo not drawn) [Compound 7] | 8.78 | 1.3 | 
5 | COC12C(COC(N)=O)C3=C(C(=O)C(C)=C(Nc4ccc(N)cc4)C3=O)N1CC1NC12 (stereo not drawn) [Compound 8] | 7.83 | 0.07 | 
6 | COC12C(COC(N)=O)C3=C(C(=O)C(C)=C(Nc4ccc(Br)cc4)C3=O)N1CC1NC12 (stereo not drawn) [Compound 10] | 8.72 | 2.16 | 
7 | COC12C(COC(N)=O)C3=C(C(=O)C(C)=C(Nc4cccc(I)c4)C3=O)N1CC1NC12 (stereo not drawn) [Compound 11] | 8.9 | 2.42 | 
8 | COC12C(COC(N)=O)C3=C(C(=O)C(C)=C(Nc4ccc(I)cc4)C3=O)N1CC1NC12 (stereo not drawn) [Compound 12] | 8.77 | 2.42 | 
9 | COC12C(COC(N)=O)C3=C(C(=O)C(C)=C(Nc4ccc(O)cc4)C3=O)N1CC1NC12 (stereo not drawn) [Compound 13] | 7.88 | 0.63 | 
10 | CO[C@@]12[C@H](COC(N)=O)C3=C(C(=O)C(C)=C(Nc4ccc([N+](=O)[O-])cc4)C3=O)N1C[C@@H]1N[C@@H]12 [Compound 14] | 9.07 | 1.02 | 
11 | COC12C(COC(N)=O)C3=C(C(=O)C(C)=C(Nc4ccc(O)c(I)c4)C3=O)N1CC1NC12 (stereo not drawn) [Compound 15] | 7.76 | 1.75 | 
12 | COC12C(COC(N)=O)C3=C(C(=O)C(C)=C(Nc4ccc(O)c([N+](=O)[O-])c4)C3=O)N1CC1NC12 (stereo not drawn) [Compound 16] | 7.71 | 0.51 | 
13 | CO[C@@]12[C@H](COC(N)=O)C3=C(C(=O)C(C)=C(Nc4ccc5[nH]ccc5c4)C3=O)N1C[C@@H]1N[C@@H]12 [Compound 17] | 8.75 | 2.45 | 
14 | COC12C(COC(N)=O)C3=C(C(=O)C(C)=C(Nc4nc(C)cs4)C3=O)N1CC1NC12 (stereo not drawn) [Compound 18] | 8.69 | 1.52 | 
15 | COC12C(COC(N)=O)C3=C(C(=O)C(C)=C(Nc4cc[nH]n4)C3=O)N1CC1NC12 (stereo not drawn) [Compound 19] | 7.38 | 0.56 | 
16 | COC1=C(C)C(=O)C2=C(C1=O)[C@@H](COC(N)=O)[C@@]1(OC)[C@H]3N[C@H]3CN21 [Compound 20] | 9.52 | 0.26 | 
17 | COC12C(COC(N)=O)C3=C(C(=O)C(C)=C(OC4CC4)C3=O)N1CC1NC12 (stereo not drawn) [Compound 21] | 9.2 | 0.83 | 
18 | CO[C@@]12[C@H](COC(N)=O)C3=C(C(=O)C(C)=C(OCC4CC4)C3=O)N1C[C@@H]1N[C@@H]12 [Compound 22] | 9.43 |  | 
19 | COC12C(COC(N)=O)C3=C(C(=O)C(C)=C(OCC4CCC4)C3=O)N1CC1NC12 (stereo not drawn) [Compound 23] | 9.66 | 2.47 | 
20 | COC12C(COC(N)=O)C3=C(C(=O)C(C)=C(OCc4ccccc4)C3=O)N1CC1NC12 (stereo not drawn) [Compound 24] | 9.21 | 1.94 | 
21 | COC12C(COC(N)=O)C3=C(C(=O)C(C)=C(OCCO)C3=O)N1CC1NC12 (stereo not drawn) [Compound 25] | 8.31 | −1.1 | 
22 | COC12C(COC(N)=O)C3=C(C(=O)C(C)=C(OCCOc4ccccc4)C3=O)N1CC1NC12 (stereo not drawn) [Compound 26] | 9.48 | 1.74 | 
23 | CO[C@@]12[C@H](COC(N)=O)C3=C(C(=O)C(C)=C(OCCOCCO)C3=O)N1C[C@@H]1N[C@@H]12 [Compound 27] | 7.32 | −1.08 | 
24 | COCCOCCOC1=C(C)C(=O)C2=C(C1=O)[C@@H](COC(N)=O)[C@@]1(OC)[C@H]3N[C@H]3CN21 [Compound 28] | 8.24 | −0.46 | 
25 | NC1C=CCCC1 (stereo not drawn) [Compound 95] |  |  | 10.42
26 | CC1=CCCCC1N (stereo not drawn) [Compound 96] |  |  | 10.37
